Laboratory results: PubChem BioAssay (NCI)
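The compound was tested at five concentrations on cells cultured in 96-well plates, with a 48-hour exposure period. The concentration for full growth arrest is given as TGI.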

Legend:
Assay in all cases: growth of human tumour cells (NCI), 48 h
HCC-2998 colon = tested on: HCC-2998 colon
HT29 colon = tested on: HT29 colon
KM12 colon = tested on: KM12 colon
OVCAR-4 ovarian = tested on: OVCAR-4 ovarian
OVCAR-5 ovarian = tested on: OVCAR-5 ovarian
RXF 393 renal = tested on: RXF 393 renal
SF-268 CNS = tested on: SF-268 CNS
SF-539 CNS = tested on: SF-539 CNS
SK-MEL-5 melanoma = tested on: SK-MEL-5 melanoma
SNB-19 CNS = tested on: SNB-19 CNS
TK-10 renal = tested on: TK-10 renal

| SMILES | TGI (HCC-2998 colon) [µM] | TGI (HT29 colon) [µM] | TGI (KM12 colon) [µM] | TGI (OVCAR-4 ovarian) [µM] | TGI (OVCAR-5 ovarian) [µM] | TGI (RXF 393 renal) [µM] | TGI (SF-268 CNS) [µM] | TGI (SF-539 CNS) [µM] | TGI (SK-MEL-5 melanoma) [µM] | TGI (SNB-19 CNS) [µM] | TGI (TK-10 renal) [µM] |
| --- | --- | --- | --- | --- | --- | --- | --- | --- | --- | --- | --- |
| COc1ccc2nc3c([N+](=O)[O-])ccc4c3c(c2c1)NCCN4C | 4.63 | 12.4 | 23.2 | 3.57 | 23 | 0.878 | 7.63 | 2.62 | 2.86 | 8.77 | 51.9 |
| Cc1nnc2c3c(-c4ccccc4)c(-c4ccccc4)oc3nc(N(C)C)n12 | 60.5 | > 100 | > 100 | > 100 | > 100 | > 100 | > 100 | > 100 | > 100 | > 100 | > 100 |
| CC1CC[C@]2(C(=O)O)CCC3(C)C(=C2[C@H]1C)C=CC1[C@@]2(C)CC[C@H](O)C(C)(C)C2CC[C@]13C (stereo partly drawn) | 73.8 | > 100 | > 100 | > 100 | > 100 | 29 | > 100 | 50.9 | 56.6 | > 100 | > 100 |
| CCCCCc1c(CCCC)c(=O)[nH]c2cc(CNCC(OC)OC)ccc12 | 7.62 | 12.4 | 26.4 | 30.9 | 28 | 27.1 | 32.6 | 28.4 | 21 | 26.2 | 28.7 |
| COC(=O)C(Cc1ccccc1)NC(=O)CNC(=O)CSc1nnc(COc2ccc(Cl)cc2)n1-c1ccccc1 (stereo not drawn) | 24.7 | 35.3 | 35.2 | 21.7 | 33.6 | 33.1 | 33 | 34.3 | 29.8 | 31.4 | 27.7 |
| COC(=O)/C=C1/OC(c2ccccc2)=C(Cl)C1=O | 38.9 | 48.4 | 45.6 | 39 | 35.6 | 35.9 | 48.1 | 47.1 | 28.7 | > 66.9 | 51.6 |
| NC1CCC(c2cc3ccccc3s2)(N2CCCCC2)CC1 (stereo not drawn) | 2.21 | 2.45 | 3.78 | 15.2 | 6.23 | 21.2 | 15.8 | 4.59 | 4.16 | 26.8 | 19 |
| O=[N+]([O-])C(=C(NCc1ccccc1)NCc1ccccc1)C(Cl)=C(Cl)Cl | > 100 | > 100 | 47.7 | > 100 |  | 98.4 | 69.4 | > 100 | 36 | > 100 | > 100 |
| O=C1CSC2(CCN(CCCN3c4ccccc4Sc4ccc(Cl)cc43)CC2)N1 | 14.4 | 11.9 | 19.1 | 23.1 | 24.3 | 16.3 | 26.6 | 26.4 | 23 | 26 | 21.2 |
